Measurements reported in the supplement of paper PMC10307832.

Assays:
Assay in all cases: relative viability (nuclei count vs DMSO), 5 days (fraction); higher = more cells survive
Hydroxychloroquine = compound: CCN(CCO)CCCC(C)Nc1ccnc2cc(Cl)ccc12 [Hydroxychloroquine]
Summary of the method: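 Lung cancer cell lines received five library-drug doses (not always all listed) spaced by √10, pinned on vehicle-anchored 1536-well plates after an overnight stay at 37 °C. Five days later, with no medium change, nuclei were Hoechst-stained, imaged at 4× and counted with MetaXpress. Viability is treated-well nuclei relative to vehicle-well nuclei, as a median across plates. Passing plates had control CV below 25% and at least one doubling.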

[1] = compound: CCN(CCO)CCCC(C)Nc1ccnc2cc(Cl)ccc12 [Hydroxychloroquine] + O=C(c1cc(Cc2n[nH]c(=O)c3ccccc23)ccc1F)N1CCN(C(=O)C2CC2)CC1 [Olaparib] (partner 8 µM)
Summary of the method: (§1)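 Lung cancer cell lines in 1536-well plates were dosed by pin tool the day after seeding, either with one drug alone or with a fixed anchor-drug dose plus five library-drug doses (not always all listed) in √10 steps. After 5 days, cells were fixed and their nuclei stained in one step (final 0.05% Triton X-100, 1% formaldehyde, 1 ug/ml Hoechst), then counted on 4× images. Relative viability is the nuclei count in treated wells divided by that in vehicle wells. Values are medians of duplicate plates.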

[2] = compound: CCN(CCO)CCCC(C)Nc1ccnc2cc(Cl)ccc12 [Hydroxychloroquine] + N=C(N)NC(=N)NCCc1ccccc1 [Phenformin] (partner 250 µM)
Summary of the method: as §1

[3] = compound: CCN(CCO)CCCC(C)Nc1ccnc2cc(Cl)ccc12 [Hydroxychloroquine] + CC(=O)Nc1cccc(-n2c(=O)n(C3CC3)c(=O)c3c(Nc4ccc(I)cc4F)n(C)c(=O)c(C)c32)c1 [Trametinib] (partner 0.02 µM)
Summary of the method: as §1

Cell Line	relative viability (Hydroxychloroquine; 0.5 µM)	relative viability (Hydroxychloroquine; 1.581 µM)	relative viability (Hydroxychloroquine; 5 µM)	relative viability (Hydroxychloroquine; 15.81 µM)	relative viability (Hydroxychloroquine; 50 µM)	relative viability ([1]; first compound 0.5 µM)	relative viability ([1]; first compound 1.581 µM)	relative viability ([1]; first compound 5 µM)	relative viability ([1]; first compound 15.81 µM)	relative viability ([1]; first compound 50 µM)	relative viability ([2]; first compound 0.5 µM)	relative viability ([2]; first compound 1.581 µM)	relative viability ([2]; first compound 5 µM)	relative viability ([2]; first compound 15.81 µM)	relative viability ([2]; first compound 50 µM)	relative viability ([3]; first compound 0.5 µM)	relative viability ([3]; first compound 1.581 µM)	relative viability ([3]; first compound 5 µM)	relative viability ([3]; first compound 15.81 µM)	relative viability ([3]; first compound 50 µM)
LCLC-97TM1	1.14	1.06	1.03	0.944	0.946	0.529	0.371	0.324	0.453	0.29	0.435	0.409	0.488	0.422	0.384	0.208	0.185	0.196	0.23	0.16
HARA	1.23	0.938	0.876	1	0.903	0.64	0.838	1.04	1.14	0.487	0.475	0.406	0.519	0.442	0.465	0.725	0.975	0.88	0.704	0.613
HCC-78	1.04	0.903	1.03	1.01	0.94	0.899	0.841	0.794	0.864	0.923	0.809	0.739	0.716	0.653	0.741	0.823	0.834	0.878	0.752	0.904
NCI-H1666	0.986	0.944	1.01	0.966	0.952	0.669	0.727	0.719	0.749	0.693	0.601	0.551	0.586	0.562	0.554	0.789	0.786	0.848	0.812	0.794
NCI-H2347	1.1	0.935	1.04	0.965	1.03	0.594	0.563	0.588	0.608	0.541	0.469	0.466	0.446	0.329	0.377	0.293	0.248	0.272	0.281	0.325
PC-14	1.03	0.961	0.956	1.05	1.01	0.31	0.28	0.276	0.25	0.285	0.676	0.573	0.551	0.595	0.601	0.708	0.846	0.667	0.798	0.687
NCI-H2023	1	1.03	0.941	0.981	1.13	0.566	0.405	0.501	0.479	0.466	0.423	0.433	0.436	0.4	0.386	0.529	0.492	0.504	0.53	0.503
201T	0.965	0.974	0.968	0.981	1.04	0.788	0.821	0.826	0.857	0.829	0.441	0.428	0.449	0.419	0.526	0.727	0.777	0.728	0.733	0.724
NCI-H1915	0.961	1.01	0.981	1.01	1.06	0.244	0.243	0.262	0.275	0.265	0.347	0.36	0.361	0.383	0.369	0.328	0.251	0.325	0.311	0.306
NCI-H2009	0.979	1.04	1.06	0.994	1.07	0.672	0.72	0.7	0.698	0.695	0.502	0.475	0.491	0.486	0.469	0.308	0.247	0.328	0.272	0.259
BEN	1.04	0.894	0.977	1.06	1.07	0.843	1.08	1.04	1.03	1.02	0.255	0.26	0.234	0.241	0.303	0.951	0.881	0.954	1.12	1.03
PC-3 [JPC-3]	1.01	1.08	0.957	1.06	1.02	1.23	1.14	1.09	1.2	1.16	0.448	0.457	0.448	0.432	0.507	0.694	0.69	0.668	0.723	0.681
SK-MES-1	1.06	0.959	1.07	1.05	0.995	0.812	0.683	0.724	0.738	0.671	0.668	0.741	0.723	0.693	0.635	0.558	0.52	0.538	0.559	0.553
NCI-H838	1.02	0.958	0.984	0.975	1.12	0.783	0.801	0.804	0.803	0.809	0.636	0.561	0.548	0.595	0.613	0.566	0.458	0.552	0.519	0.606
NCI-H1355	1.04	0.956	1	0.983	1.05	0.796	0.685	0.661	0.709	0.782	0.431	0.408	0.457	0.442	0.425	0.374	0.413	0.435	0.376	0.388
NCI-H1975	0.973	0.977	0.91	1	1.06	0.816	0.767	0.856	0.85	0.911	0.41	0.37	0.378	0.408	0.396	0.36	0.322	0.341	0.38	0.321
LK-2	1.01	0.96	0.941	1.14	1.24	0.734	0.719	0.659	0.648	0.874	0.37	0.314	–	0.33	0.574	0.864	0.599	0.707	0.876	1.01
NCI-H727	1.04	0.815	1.04	0.898	0.911	0.738	0.673	0.653	0.73	0.629	0.514	0.424	0.407	0.618	0.532	0.369	0.361	0.396	0.405	0.382

Cell Line	relative viability (Hydroxychloroquine; 0.5 µM)	relative viability (Hydroxychloroquine; 1.581 µM)	relative viability (Hydroxychloroquine; 5 µM)	relative viability (Hydroxychloroquine; 15.81 µM)	relative viability (Hydroxychloroquine; 50 µM)	relative viability ([1]; first compound 0.5 µM)	relative viability ([1]; first compound 1.581 µM)	relative viability ([1]; first compound 5 µM)	relative viability ([1]; first compound 15.81 µM)	relative viability ([1]; first compound 50 µM)	relative viability ([2]; first compound 0.5 µM)	relative viability ([2]; first compound 1.581 µM)	relative viability ([2]; first compound 5 µM)	relative viability ([2]; first compound 15.81 µM)	relative viability ([2]; first compound 50 µM)	relative viability ([3]; first compound 0.5 µM)	relative viability ([3]; first compound 1.581 µM)	relative viability ([3]; first compound 5 µM)	relative viability ([3]; first compound 15.81 µM)	relative viability ([3]; first compound 50 µM)
HCC-366	1.01	0.981	0.986	1.06	1.03	0.312	0.362	0.354	0.342	0.375	0.564	0.558	0.597	0.605	0.657	0.334	0.323	0.355	0.282	0.458
HOP-62	1.04	1.01	1.05	1.08	1.08	0.368	0.232	0.443	0.496	0.394	0.557	0.603	0.762	0.686	0.755	0.37	0.387	0.386	0.397	0.341
NCI-H1944	0.983	0.966	0.925	0.919	0.994	0.417	0.445	0.416	0.414	0.402	0.196	0.17	0.193	0.195	0.204	0.398	0.354	0.39	0.403	0.41
UMC-11	0.988	0.849	1.01	1.05	1.12	0.342	0.325	0.365	0.366	0.353	–	0.305	0.308	0.315	0.335	0.642	0.431	0.762	0.669	0.741
LU99A	1.01	0.874	0.938	0.951	1.02	0.261	0.265	0.228	0.299	0.254	0.765	0.735	0.873	0.751	0.799	0.626	0.505	0.542	0.527	0.577
NCI-H650	1	0.896	0.741	1.04	0.955	0.423	0.364	0.326	0.374	0.315	0.479	0.438	0.413	0.455	0.473	0.877	0.876	0.965	1.03	0.969
A-427	0.995	0.945	0.964	1	0.968	0.816	0.702	0.61	0.691	0.816	0.316	0.293	0.315	0.284	0.229	0.752	0.639	0.697	0.715	0.675
COR-L 105	0.875	0.935	0.876	0.804	0.864	0.675	0.612	0.596	0.519	0.744	0.529	0.476	0.497	0.351	0.447	0.472	0.393	0.44	0.384	0.391
NCI-H460	0.973	1	1.01	1.03	1.11	0.409	0.431	0.387	0.479	0.334	0.506	0.533	0.577	0.518	0.635	0.203	0.11	0.119	0.187	0.13
EBC-1	1.01	0.897	1.05	0.973	1.13	0.711	0.766	0.722	0.772	0.573	–	–	–	–	–	–	–	–	–	–
NCI-H1648	0.817	1.09	0.775	0.992	0.825	0.766	0.965	1.01	1.06	0.926	–	–	–	–	–	0.499	0.434	0.437	0.57	0.414
ABC-1	0.89	0.854	0.856	0.885	0.91	0.98	0.889	0.797	0.847	0.727	0.244	0.205	0.237	0.192	0.206	–	–	–	–	–
NCI-H1563	0.946	0.744	0.912	0.99	0.966	–	–	–	–	–	0.677	0.652	0.649	0.635	0.635	–	–	–	–	–
NCI-H1299	1.02	0.938	1.01	1.02	1.02	0.997	0.974	0.947	1.01	0.917	–	–	–	–	–	–	–	–	–	–
A549	1.01	0.945	1.03	0.928	1.08	0.332	0.297	0.355	0.323	0.371	0.154	0.0895	0.15	0.14	0.154	–	–	–	–	–
IA-LM	0.922	0.971	0.902	0.962	0.959	0.756	0.887	0.8	0.892	0.754	–	–	–	–	–	–	–	–	–	–
Calu-6	1.04	1.03	1	1.1	1	0.65	0.607	0.615	0.673	0.569	–	–	–	–	–	–	–	–	–	–
